Legend:
HCV Replicon 1b = experiment: HCV inhibition assay, HCV replicon 1b (Clone A or ET-lunet cells; RT-PCR or luciferase reporter); assay type: cell-based; settings: Hepatitis C virus, 96 h, HCV replicon 1b; 4 days incubation; read-out: Replicon 1b potency EC90
How it was run: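 Clone A (1500/well) or ET-lunet (3000/well) replicon cells treated with serially diluted compounds (0.5% DMSO, no G418) for 4 days at 37 °C. HCV RNA measured by one-step RT-PCR normalized to rRNA (ΔΔCt) or by luciferase luminescence versus DMSO controls; EC50/EC90 by curve fitting.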

[1] = test system: Huh7, HepG2, BxPC3, or CEM cells; experiment: Cell cytotoxicity assay (MTS), CC90 as reported in Table 1, cell line not stated; assay type: cell-based; settings: MTS assay; 8 days incubation; cell line not given
How it was run: (§1)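 Compounds, serially diluted from 100 μM, were incubated 8 days at 37° C with Huh7, HepG2 or BxPC3 (2×10^3 cells/well) or CEM (5×10^3 cells/well). Viability was read by MTS, 2 h, absorbance 490 nm. CC90 (90% inhibition) was taken against untreated cells.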

[2] = test system: genotype (GT) 1a H77 replicon; experiment: Replicon assay, H77 GT 1a replicon in Huh7-Lunet cells (RT-PCR); assay type: cell-based, HCV; settings: Hepatitis C virus, GT1A, Huh-7, 96 h, 4 days incubation, read-out: RT-PCR H77 1a Potency EC90
Description: Cell Line and Maintenance: The genotype (GT) 1a H77 replicon (Apath LLC Brooklyn, N.Y.) was stably expressed in Huh7-Lunet cells (kindly provided by R. Bartenschlager University of Heidelberg, Heidelberg, Germany) and maintained in Dulbecco's modified Eagle's medium supplemented with 10% fetal bovine serum, 0.1 mM non essential amino acids (NEAA), 4 mM L-glutamine, 1 mM sodium pyruvate and 0.750 mg/mL G418 (Geneticin) (Invitrogen, Carlsbad, Calif.).
Replicon Assay: Inhibition of HCV in the H77 GT 1a replicon (Apath LLC, Brooklyn, N.Y.) was measured by Real-Time PCR (RT-PCR) Replicon cells were added to the plate at 1500 cells/well in 50 μL of medium and 50 μL of 2× drug dilutions were added (in duplicate) per well in a 96 well plate to total 100 μL per well. The plate was incubated at 37° C. in a humidified 8% CO2 atmosphere for 4 days. After incubation, the supernatant was discarded and total RNA was extracted with RNeasy 96 (Qiagen, Valencia Calif.) per manufacturer's instructions. The extracted RNA was amplified as described by Stuyver et al., J. Virol. (2003) 77: 10689-10694, and the ΔCt values for HCV were determined and the EC90 was calculated using GraphPad Prism software (San Diego, Calif.). A “no drug” (medium only) control was used to determine maximum amount of HCV RNA.

[3] = Cell cytotoxicity assay (MTS), CC90 as reported in Table 1, cell line not stated; assay type: cell-based; settings: human; MTS assay; 8 days incubation; cell line not given
How it was run: as §1

**Q.** With CC(C)C[C@H]1CN(C(=O)c2cc(-c3ccc([N+](=O)[O-])cc3)on2)[C@@H](CC(C)C)C(=O)N1 [Compound 273, (3S,6S)-3,6-diisobutyl-4-(5-(4-nitrophenyl)isoxazole-3-carbonyl)piperazin-2-one] as the compound, how does the EC90 (HCV Replicon 1b) read?
**A.** 3760 nM

**Q.** What about the CC90 [1] of the same compound?
**A.** > 10000 nM

**Q.** For CC(C)C[C@H]1CN(C(=O)[C@@H]2C[C@H]2c2ccc(F)cc2F)[C@@H](CC(C)C)C(=O)N1 [Compound 298, (3S,6S)-4-[(1R,2R)-2-(2,4-fluoro-phenyl)-cyclopropanecarbonyl]-3,6-diisobutyl-piperazin-2-one], which EC90 (HCV Replicon 1b) is on record?
**A.** 230 nM

**Q.** What about the CC90 [1] of the same compound?
**A.** > 10000 nM

**Q.** Which EC90 (HCV Replicon 1b) does the source give for CC(C)C[C@H]1C(=O)N[C@@H](c2ccccc2)CN1C(=O)[C@@H]1C[C@H]1c1ccc(Cl)cc1 [Compound 301, (3S,6S)-4-((1R,2R)-2-(4-chlorophenyl)cyclopropanecarbonyl)-3-isobutyl-6-phenyl-piperazin-2-one] here?
**A.** 170 nM

**Q.** And the CC90 [1]?
**A.** > 10000 nM

**Q.** Which EC90 [2] does the source give for C/C=C/[C@H]1CN(C(=O)c2cc(-c3ccc(F)cc3)on2)[C@@H](CC(C)C)C(=O)N1 [Compound 424, (3S,6S)-4-(5-(4-fluorophenyl)isoxazole-3-carbonyl)-3-isobutyl-6-((E)-prop-1-en-1-yl)piperazin-2-one] here?
**A.** 82 nM

**Q.** And the EC90 (HCV Replicon 1b)?
**A.** 64 nM

**Q.** And the CC90 at 8 days [3]?
**A.** > 10000 nM

**Q.** With CC(C)C[C@H]1C(=O)N[C@@H](c2cccs2)CN1C(=O)c1cc(-c2ccc(F)cc2)on1 [Compound 426, (3S,6R)-4-(5-(4-fluorophenyl)isoxazole-3-carbonyl)-3-isobutyl-6-(thiophen-2-yl)piperazin-2-one] as the compound, how does the EC90 [2] read?
**A.** 48 nM

**Q.** And the EC90 (HCV Replicon 1b)?
**A.** 18 nM

**Q.** And the CC90 at 8 days [3]?
**A.** > 10000 nM

**Q.** Which results are given for CC(C)C[C@H]1C(=O)N[C@@H](c2cccs2)CN1C(=O)c1noc(-c2ccc(F)cc2)n1 [Compound 430, (3S,6R)-4-(5-(4-fluorophenyl)-1,2,4-oxadiazole-3-carbonyl)-3-isobutyl-6-(thiophen-2-yl)piperazin-2-one]?
**A.** EC90 [2]: 18 nM; EC90 (HCV Replicon 1b): 2.6 nM; CC90 at 8 days [3]: > 10000 nM

**Q.** What does the source list for CC(C)C[C@H]1C(=O)N[C@@H](c2cccs2)CN1C(=O)c1cc(-c2ccc(F)cc2)no1 [Compound 432, (3S,6R)-4-(3-(4-fluorophenyl)isoxazole-5-carbonyl)-3-isobutyl-6-(thiophen-2-yl)piperazin-2-one]?
**A.** EC90 [2]: 22 nM; EC90 (HCV Replicon 1b): 20 nM; CC90 at 8 days [3]: > 10000 nM

**Q.** Which EC90 [2] does the source give for CC(C)C[C@H]1C(=O)N[C@@H](c2cccs2)CN1C(=O)[C@@H]1C[C@H]1c1ccc(F)cc1 [Compound 433, (3S,6R)-4-((1R,2R)-2-(4-fluorophenyl)cyclopropanecarbonyl)-3-isobutyl-6-(thiophen-2-yl)piperazin-2-one] here?
**A.** 30 nM

**Q.** What about the EC90 (HCV Replicon 1b) of the same compound?
**A.** 18 nM

**Q.** What about the CC90 at 8 days [3] of the same compound?
**A.** > 10000 nM

**Q.** With CC(C)C[C@H]1C(=O)N[C@@H](c2ccsc2)CN1C(=O)c1cc(-c2ccc(F)cc2)on1 [Compound 436, (3S,6S)-4-(5-(4-fluorophenyl)isoxazole-3-carbonyl)-3-isobutyl-6-(thiophen-3-yl)piperazin-2-one] as the compound, how does the EC90 [2] read?
**A.** 38 nM

**Q.** What about the EC90 (HCV Replicon 1b) of the same compound?
**A.** 18 nM

**Q.** What about the CC90 at 8 days [3] of the same compound?
**A.** > 10000 nM

**Q.** What does the source list for CC(C)C[C@H]1C(=O)N[C@@H](c2ccsc2)CN1C(=O)[C@@H]1C[C@H]1c1ccc(F)cc1 [Compound 445, (3S,6S)-4-((1R,2R)-2-(4-fluorophenyl)cyclopropanecarbonyl)-3-isobutyl-6-(thiophen-3-yl)piperazin-2-one]?
**A.** EC90 [2]: 20 nM; EC90 (HCV Replicon 1b): 27 nM; CC90 at 8 days [3]: > 10000 nM

**Q.** For CC(C)C[C@H]1C(=O)N[C@@H](c2ccsc2)CN1C(=O)c1noc(-c2ccc(F)cc2)n1 [Compound 446, (3S,6S)-4-(5-(4-fluorophenyl)-1,2,4-oxadiazole-3-carbonyl)-3-isobutyl-6-(thiophen-3-yl)piperazin-2-one], which EC90 [2] is on record?
**A.** 28 nM

**Q.** What about the EC90 (HCV Replicon 1b) of the same compound?
**A.** 14 nM

**Q.** What about the CC90 at 8 days [3] of the same compound?
**A.** > 10000 nM

**Q.** Which EC90 [2] does the source give for CC(C)C[C@H]1C(=O)N[C@@H](c2ccsc2Cl)CN1C(=O)c1cc(-c2ccc(F)cc2)on1 [Compound 496, (3S,6S)-6-(2-chlorothiophen-3-yl)-4-(5-(4-fluorophenyl)isoxazole-3-carbonyl)-3-isobutylpiperazin-2-one] here?
**A.** 65 nM

**Q.** And the EC90 (HCV Replicon 1b)?
**A.** 11 nM

**Q.** What about the CC90 at 8 days [3] of the same compound?
**A.** > 10000 nM

**Q.** What does the source list for CC(C)C[C@H]1C(=O)N[C@@H](c2ccsc2Cl)CN1C(=O)c1noc(-c2ccc(F)cc2)n1 [Compound 499, (3S,6S)-6-(2-chlorothiophen-3-yl)-4-(5-(4-fluorophenyl)-1,2,4-oxadiazole-3-carbonyl)-3-isobutylpiperazin-2-one]?
**A.** EC90 [2]: 83 nM; EC90 (HCV Replicon 1b): 23 nM; CC90 at 8 days [3]: > 10000 nM

**Q.** With CC(C)C[C@H]1C(=O)N[C@@H](c2cnco2)CN1C(=O)[C@@H]1C[C@H]1c1ccc(F)cc1 [Compound 521, (3S,6R)-4-((1R,2R)-2-(4-fluorophenyl)cyclopropanecarbonyl)-3-isobutyl-6-(oxazol-5-yl)piperazin-2-one] as the compound, how does the EC90 [2] read?
**A.** 4 nM

**Q.** What about the EC90 (HCV Replicon 1b) of the same compound?
**A.** 22 nM

**Q.** What about the CC90 at 8 days [3] of the same compound?
**A.** > 10000 nM
